Measurements: US8153674B2, “Organic compounds” (Novartis AG, priority 2006, dated 2012)

What was measured:
CYP11B1 = target: T1, CYP11B1 (Homo sapiens, UniProt P15538); assay: In vitro CYP11B1 inhibition in NCI-H295R cells (steroid release, radioimmunoassay); type: cell-based; details: I %: percentage of inhibition; for inhibition at 0.1 µM: NCI-H295R, 100 nM
T1 construct: Thus, the NCI-H295R cells have Cyp11 B1 (steroid 11 p-hydroxylase); host or cells: NCI-H295R
T1 sequence (P15538 25-503): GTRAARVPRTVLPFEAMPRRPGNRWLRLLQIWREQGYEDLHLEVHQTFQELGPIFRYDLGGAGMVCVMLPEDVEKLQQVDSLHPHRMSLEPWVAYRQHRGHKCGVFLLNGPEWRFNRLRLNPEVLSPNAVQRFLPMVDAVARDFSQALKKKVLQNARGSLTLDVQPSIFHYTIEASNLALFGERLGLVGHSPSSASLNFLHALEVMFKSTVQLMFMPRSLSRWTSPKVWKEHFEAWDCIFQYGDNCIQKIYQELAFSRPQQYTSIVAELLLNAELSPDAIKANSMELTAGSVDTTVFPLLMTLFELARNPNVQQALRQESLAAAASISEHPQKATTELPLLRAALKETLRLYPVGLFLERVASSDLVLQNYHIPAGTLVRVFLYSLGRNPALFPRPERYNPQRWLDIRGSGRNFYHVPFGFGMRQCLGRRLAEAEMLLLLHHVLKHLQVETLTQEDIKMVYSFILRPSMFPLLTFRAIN
Excerpt: The in vitro inhibitory activities for CYP11B1 can be determined by the following assay.
The cell line NCI-H295R was originally isolated from an adrenocortical carcinoma and has been characterized in the literature through the stimulable secretion of steroid hormones and the presence of the enzymes essential for steroidogenesis. Thus, the NCI-H295R cells have Cyp11 B1 (steroid 11 p-hydroxylase). The cells show the physiological property of zonally undifferentiated human foetal adrenocortical cells which, however, have the capacity to produce the steroid hormones which are formed in the three, phenotypically distinguishable zones in the adult adrenal cortex. The NCI-H295R cells (American Type Culture Collection, ATCC, Rockville, Md., USA) are grown in Dulbeoco's Modified Eagle'Ham F-12 Medium (DME/F12), which has been I supplemented with Ulroser SF Serum(Soprachem, Cergy-Saint-Christophe, France), insulin, transferrin, selenite (1-T-S, Becton Dickinson Biosiences, Franklin lakes, NJ, USA) and antibiotics in 75 cm^2 cell culture vessels at 37° C. and in a 95% air-5% carbon dioxide atmosphere. The cells are subsequently transferred for colony formation into a 24-well incubation vessel. They are cultivated there in DME/F12 medium, which is now supplemented with 0.1% bovine serum instead of Ultroser SF for 24 hours. The experiment is initiated by cultivating the cells in DME/F12 medium which is supplemented with 0.1% bovine serum albumin and test compound, in the presence or absence of cell stimulants, for 72 hours. The test substance is added in a concentration range from 0.2 nanomolar to […]. Cell stimulants which can be used are angiotensin 11 ([…] or 100 nanomolar), potassium ions (16 millimolar), forskolin (10 micromolar) or a combination of two stimulants.
The excretion of aldosterone, cortisol, corticosterone and estradiol/estrone into the culture medium can be detected and quantified by commercially available, specific monoclonal antibodies in radioimmunoassays in accordance with the manufacturers instructions.
Inhibition of the release of certain steroids can be used as a measure of the respective enzyme inhibition by the added test compounds. The dose-dependent inhibition of enzymic activity by a compound is calculated by means of an inhibition plot which is characterized by an IC50.
The IC50 values for active test compounds are ascertained by a simple linear regression analysis in order to construct inhibition plots without data weighting. The inhibition plot is calculated by fitting a 4-parameter logistic function to the raw data points using the least squares method. The equation of the 4-parameter logistic function is calculated as follows: Y=(d−a)/((1+(x/c)b))+a I where: a=minimum data level b=gradient I c=ICED, d=maximum data level x=inhibitor concentration.

[1] = target: T2, aldosterone synthase (CYP11B2) (Homo sapiens, UniProt P19099); assay: In vitro aldosterone synthase inhibition: cellular aldosterone production in Ang II-stimulated NCI-H295R cells; type: cell-based; details: 1 μM Ang II, 24 hr
T2 construct: host or cells: NCI-H295R
T2 sequence (P19099 25-503): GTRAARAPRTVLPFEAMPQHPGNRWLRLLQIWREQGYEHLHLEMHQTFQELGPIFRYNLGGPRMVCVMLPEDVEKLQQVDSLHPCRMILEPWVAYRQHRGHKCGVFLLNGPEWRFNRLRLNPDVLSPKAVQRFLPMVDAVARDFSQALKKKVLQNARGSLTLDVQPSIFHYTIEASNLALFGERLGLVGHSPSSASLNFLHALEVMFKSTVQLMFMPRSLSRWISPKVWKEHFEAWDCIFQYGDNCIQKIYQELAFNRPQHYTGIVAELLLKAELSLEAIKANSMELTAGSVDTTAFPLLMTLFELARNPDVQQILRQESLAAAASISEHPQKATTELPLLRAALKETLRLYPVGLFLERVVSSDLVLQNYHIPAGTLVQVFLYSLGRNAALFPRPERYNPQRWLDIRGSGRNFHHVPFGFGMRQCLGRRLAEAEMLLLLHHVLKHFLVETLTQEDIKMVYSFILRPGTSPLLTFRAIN
Excerpt: In particular, the aldosterone synthase inhibitory activities in vitro can be determined by the following assay.
Human adrenocortical carcinoma NCI-H295R cell line is obtained from American Type Culture Collection (Manassas, Va.). Insulin/transferrin/selenium (ITS)-A supplement (100×), DMEM/F-12, antibiotic/antimycotic (100×), and fetal calf serum (FCS) are purchased from Gibco (Grand Island, N.Y.). Anti-mouse PVT scintillation proximity assay (SPA) beads and NBS 96-well plates are obtained from Amersham (Piscataway, N.J.) and Corning (Acton, Mass.), respectively. Solid black 96-well flat bottom plates are purchased from Costar (Corning, N.Y.). Aldosterone and angiotensin (Ang II) are purchased from Sigma (St. Louis, Mo.). D-[1,2,6,7-^3H(N)]aldosterone is acquired from PerkinElmer (Boston, Mass.). Nu-serum is a product of BD Biosciences (Franklin Lakes, N.J.).
For in vitro measurement of aldosterone activity, human adrenocortical carcinoma NCI-H295R cells are seeded in NBS 96-well plates at a density of 25,000 cells/well in 100 μl of a growth medium containing DMEM/F12 supplemented with 10% FCS, 2.5% Nu-serum, 1 μg ITS/ml, and 1× antibiotic/antimycotic. The medium is changed after culturing for 3 days at 37° C. under an atmosphere of 5% CO2/95% air. On the following day, cells are rinsed with 100 μl of DMEM/F12 and incubated with 100 μl of treatment medium containing 1 μM Ang II and a compound at different concentrations in quadruplicate wells at 37° C. for 24 hr. At the end of incubation, 50 μl of medium is withdrawn from each well for measurement of aldosterone production by an RIA using mouse anti-aldosterone monoclonal antibodies.
Measurement of aldosterone activity can also be performed using a 96-well plate format. Each test sample is incubated with 0.02 μCi of D-[1,2,6,7-^3H(N)]aldosterone and 0.3 μg of anti-aldosterone antibody in phosphate-buffered saline (PBS) containing 0.1% Triton X-100, 0.1% bovine serum albumin, and 12% glycerol in a total volume of 200 μl at room temperature for 1 hr. Anti-mouse PVT SPA beads (50 μl) are then added to each well and incubated overnight at room temperature prior to counting in a Microbeta plate counter. The amount of aldosterone in each sample is calculated by comparing with a standard curve generated using known quantities of the hormone.

inhibition at 0.1 µM (CYP11B1) [%] | IC50 [1] [nM] | melting point [°C] | Compound | CYP11B1 % I (100 nM) (CYP11B1) [%]
100 | 6 |  | CCCCc1cncn1C1c2ccccc2C(=O)OC1(C)C (racemic) [Entry 6, 4-(5-butyl-imidazol-1-yl)-3,3-dimethyl-isochroman-1-one] | 
100 | 17 |  | CCOCc1cncn1C1c2ccccc2C(=O)OC1(C)C (single isomer, unassigned) [Entry 8, 4-(5-ethoxymethyl-imidazol-1-yl)-3,3-dimethyl-isochroman-1-one] | 
100 | 22 |  | C=Cc1cncn1C1c2ccccc2C(=O)OC1(C)C (single isomer, unassigned) [Entry 7, 4-(5-vinyl-imidazol-1-yl)-3,3-dimethyl-isochroman-1-one] | 
94 | 3 |  | CCOC(=O)c1cncn1C1c2ccccc2C(=O)OC1(C)C (single isomer, unassigned) [Entry 2, 3-(3,3-dimethyl-1-oxo-isochroman-4-yl)-3H-imidazole-4-carboxylic acid ethyl ester] | 

Second part, the compound before the results:

Compound | inhibition at 0.1 µM (CYP11B1) [%] | IC50 [1] [nM] | melting point [°C] | CYP11B1 % I (100 nM) (CYP11B1) [%]
Cc1noc(-c2cncn2C2c3ccccc3C(=O)OC2(C)C)n1 (racemic) [Entry 4, 3,3-dimethyl-4-[5-(3-methyl-[1,2,4]oxadiazol-5-yl)imidazol-1-yl]-isochroman-1-one] | 100 | 187 |  | 
COC(=O)c1cncn1C1c2ccccc2C(=O)N(C)C1(C)C (racemic) [Entry 11, 3-(2,3,3-trimethyl-1-oxo-1,2,3,4-tetrahydro-isoquinolin-4-yl)-3H-imidazole-4-carboxylic acid methyl ester] | 95 | 73 |  | 
CC1(C)OC(=O)c2ccccc2C1n1cncc1C(=O)Oc1ccccc1 (single isomer, unassigned) [Entry 3, 3-(3,3-dimethyl-1-oxo-isochroman-4-yl)-3H-imidazole-4-carboxylic acid phenyl ester] | 97 | 3 |  | 
CCc1cncn1C1c2ccccc2C(=O)OC12CCC2 (stereo not shown) [Example 1(f), [4-(5-ethyl-imidazol-1-yl)-isochroman-1-one]-3-spirocyclobutane] |  |  | 178 to 179 | 
CCc1cncn1C1c2ccccc2C(=O)OC12CCOCC2 (racemic) [Entry 10, [4-(5-ethyl-imidazol-1-yl)-isochroman-1-one]-3-spiro(4-tetrahydropyran)] | 90 | 314 |  | 
COC(=O)c1cncn1C1c2ccccc2C(=O)N(C2CC2)C1(C)C (racemic) [Entry 12, 3-(2-cyclopropyl-3,3-dimethyl-1-oxo-1,2,3,4-tetrahydro-isoquinolin-4-yl)-3H-imidazole-4-carboxylic acid methyl ester] | 77 | 530 |  | 
COC(=O)c1cncn1C1c2ccccc2C(=O)OC1(C)C (single isomer, unassigned) [Entry 1, 3-(3,3-dimethyl-1-oxo-isochroman-4-yl)-3H-imidazole-4-carboxylic acid methyl ester] | 100 | 24 |  | 
CCc1cncn1C1c2ccccc2C(=O)OC12CCC2 (single isomer, unassigned) [Entry 9, [4-(5-ethyl-imidazol-1-yl)-isochroman-1-one]-3-spirocyclobutane] | 100 | 7 |  | 
3-(3,3-dimethyl-1-oxo-isochroman-4-yl)-3H-imidazole-4-carbaldehyde oxime (trans) [Entry 5] |  | 47 |  | 97
